Measured values from PMC12508156, “Non-canonical dihydrolipoyl transacetylase promotes chemotherapy resistance via mitochondrial tetrahydrofolate signaling” (Nature Communications, 2025).
Residues, ends and D or L forms follow the SMILES beside them.

Experiments:
[1] = HPLC-based in vitro serum stability assay; assay type: in vitro ADME; details: 0.2 mg DMp39 incubated for indicated times with pre-warmed 50% serum, remaining peptide by heights of elution peaks, optimal dose of 20 μM
Procedure: Fig. 8 Decoy peptide DMp39 targets DLAT-mediated MTHFD2 acetylation and increases tumor chemosensitivity in vitro and in vivo. a The structure of MTHFD2. K44 containing α-helix in MTHFD2, is marked in purple. The amino acid sequence of DMp39 is shown at the top. b HPLC-based in vitro serum stability assay of DMp39. DMp39 (0.2 mg) was incubated for indicated times with pre-warmed 50% serum and applied to HPLC. […] Liver, kidney, and spleen toxicity were assessed by serum alanine aminotransferase, cystatin C, and spleen index (spleen weight (mg)/body weight (g) x 10), respectively. g Efficacy test of Cy7-DMp39 in vivo. […] MTHFD2 and Ac-K44 MTHFD2 levels in tumors were assessed by co-immunoprecipitation of MTHFD2. […] Representative images of the tumors at the endpoint are presented in (h) and (k). Ac-K44 MTHFD2, MT-CO2, and DLAT levels in both xenograft mouse tumors were assessed by IHC staining (j, m). Scale bars in (h) and (k) represent 10 mm and 25 μm in (j) and (m). Results are presented as mean ± SEM for (h, k) and mean ± SD for the rest. n = 3 per group for (e, f), n = 6 for (g) left, n = 5 for (g) right, n = 6 for (h–j), and n = 5 for (k–m). P values were obtained by one-way ANOVA. Source data are provided as a Source Data file.

[2] = Organ toxicity in mice (serum ALT, cystatin C, spleen index); assay type: in vivo
Procedure: K44 containing α-helix in MTHFD2, is marked in purple. The amino acid sequence of DMp39 is shown at the top. b HPLC-based in vitro serum stability assay of DMp39. DMp39 (0.2 mg) was incubated for indicated times with pre-warmed 50% serum and applied to HPLC. […] Liver, kidney, and spleen toxicity were assessed by serum alanine aminotransferase, cystatin C, and spleen index (spleen weight (mg)/body weight (g) x 10), respectively. g Efficacy test of Cy7-DMp39 in vivo. […] MTHFD2 and Ac-K44 MTHFD2 levels in tumors were assessed by co-immunoprecipitation of MTHFD2. […] Representative images of the tumors at the endpoint are presented in (h) and (k). Ac-K44 MTHFD2, MT-CO2, and DLAT levels in both xenograft mouse tumors were assessed by IHC staining (j, m). […]
Mice were subcutaneously injected into the flank with 1 × 10^6 KB-3-1^cisR cells with or without DLAT knockdown. […] The tumor volume of KB-3-1^cisR or PDX tumors was monitored by blinded measurements of two perpendicular diameters and calculated using the formula 4π/3 x (width/2)^2 x (length/2). […] Tumors were collected at the experimental endpoint, and tumor proliferation was assessed using Ki-67 IHC staining. The localization, penetration, and efficacy of DMp39 were monitored by assessing the acetyl-K44 levels in tumors and fluorescence imaging analysis using an IVIS imaging system. […]

SMILES: CC[C@H](C)[C@H](NC(=O)[C@H](CCC(N)=O)NC(=O)[C@H](CCC(N)=O)NC(=O)[C@H](C)NC(=O)[C@H](CC(C)C)NC(=O)[C@H](CCCCN)NC(=O)[C@H](CCCNC(=N)N)NC(=O)CNC(=O)[C@H](CO)NC(=O)[C@@H](NC(=O)[C@@H](N)C(C)C)[C@@H](C)CC)C(=O)N[C@@H](CCCCN)C(=O)N[C@@H](CCC(N)=O)C(=O)N[C@@H](CCC(=O)O)C(=O)N[C@H](C(=O)N[C@@H](CCCNC(=N)N)C(=O)N[C@@H](CCC(N)=O)C(=O)N[C@@H](CCC(=O)O)C(=O)N[C@H](C(=O)N[C@@H](CCC(=O)O)C(=O)N[C@@H](CCC(=O)O)C(=O)N[C@@H](Cc1c[nH]c2ccccc12)C(=O)N[C@H](C(=O)N[C@@H](C)C(=O)N[C@@H](CO)C(=O)NCC(=O)N[C@@H](CC(N)=O)C(=O)N[C@@H](CCCCN)C(=O)N[C@@H](Cc1ccc(O)cc1)C(=O)NCC(=O)N[C@@H](CCCNC(=N)N)C(=O)N[C@@H](CCCCN)C(=O)N[C@@H](CCCCN)C(=O)N[C@@H](CCCNC(=N)N)C(=O)N[C@@H](CCCNC(=N)N)C(=O)N[C@@H](CCC(N)=O)C(=O)N[C@@H](CCCNC(=N)N)C(=O)N[C@@H](CCCNC(=N)N)C(=O)N[C@@H](CCCNC(=N)N)C(=O)O)C(C)C)C(C)C)C(C)C [DMp39] (H-VISGRKLAQQIKQEVRQEVEEWVASGNKYGRKKRRQRRR-OH)
- time-dependent serum stability [1]: stable
- toxicity markers ([2]; mice, sublethal cisplatin (5 mg/kg, twice/week for 22 days) and/or DMp39): remained at baseline levels
- acute toxicity ([2]; short-term dosing in mice): no acute toxicity
